A value given as a limit tells only on which side of the number the result lay.

This assay addresses human activated kallikrein enzyme (Homo sapiens, UniProt P03952). Kind of assay: Inhibition of human activated plasma kallikrein, fluorogenic PFR-AMC substrate, 500 pM enzyme format. The note with it: 500 pM activated kallikrein; 300 μM PFR-AMC; 30 min preincubation; 10 min room temperature; pH 7.5; read-out: Primary Dose Response Assay: Average EC50. In kind it is biochemical. The gist of the method: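 500 pM activated kallikrein preincubated 30 min at room temperature with inhibitors in pH 7.5 Tris/EDTA/NaCl buffer with PEG-400 and Triton X-100. Reaction started with 300 μM PFR-AMC, run 10 min at room temperature; AMC fluorescence read at ex 380/em 460 nm.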

Sequence of human activated kallikrein enzyme (P03952 391-638 limits assumed): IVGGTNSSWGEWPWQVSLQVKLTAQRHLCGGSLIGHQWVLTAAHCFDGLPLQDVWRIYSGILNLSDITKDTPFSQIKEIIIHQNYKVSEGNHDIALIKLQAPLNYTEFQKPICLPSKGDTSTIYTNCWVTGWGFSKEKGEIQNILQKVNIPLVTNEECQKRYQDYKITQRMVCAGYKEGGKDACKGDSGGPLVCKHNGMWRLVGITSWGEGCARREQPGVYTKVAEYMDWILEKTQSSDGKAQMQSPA
Sequence of human activated kallikrein enzyme (P03952 20-390 partner limits assumed): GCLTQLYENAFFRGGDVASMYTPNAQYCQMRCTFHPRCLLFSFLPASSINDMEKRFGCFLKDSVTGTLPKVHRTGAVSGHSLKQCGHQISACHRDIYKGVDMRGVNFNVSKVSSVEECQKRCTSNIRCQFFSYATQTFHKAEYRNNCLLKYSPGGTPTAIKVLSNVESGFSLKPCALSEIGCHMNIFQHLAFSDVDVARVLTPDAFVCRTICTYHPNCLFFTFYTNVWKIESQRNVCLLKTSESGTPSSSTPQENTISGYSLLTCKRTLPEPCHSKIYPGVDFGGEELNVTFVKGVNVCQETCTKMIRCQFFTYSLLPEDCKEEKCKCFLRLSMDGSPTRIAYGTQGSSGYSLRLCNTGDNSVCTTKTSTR

By EC50 is commonly meant the concentration at which the effect is half-maximal. For the compound `Cc1cc2c(N)nccc2c(C)c1CNC(=O)c1cnn(Cc2cn3c(C4CC4)cccc3n2)c1` [Example 137, N-((1-amino-5,7-dimethylisoquinolin-6-yl)methyl)-1-((5-cyclopropylimidazo[1,2-a]pyridin-2-yl)methyl)-1H-pyrazole-4-carboxamide], the EC50 lay in the range of 1 to 10 nM.
Next, `Cc1cc2c(N)nccc2c(C)c1CNC(=O)c1cnn(Cc2cn3c(Cl)c(Br)ccc3n2)c1` [Example 138, N-((1-amino-5,7-dimethylisoquinolin-6-yl)methyl)-1-((6-bromo-5-chloroimidazo[1,2-a]pyridin-2-yl)methyl)-1H-pyrazole-4-carboxamide]: below 1 nM; `Cc1cc2c(N)nccc2c(C)c1CNC(=O)c1cnn(Cc2cn3c(Br)cccc3n2)c1` [Example 139, N-((1-amino-5,7-dimethylisoquinolin-6-yl)methyl)-1-((5-bromoimidazo[1,2-a]pyridin-2-yl)methyl)-1H-pyrazole-4-carboxamide]: below 1 nM; `CCc1cccc2nc(Cn3cc(C(=O)NCc4c(C)cc5c(N)nccc5c4C)cn3)cn12` [Example 140, N-((1-amino-5,7-dimethylisoquinolin-6-yl)methyl)-1-((5-ethylimidazo[1,2-a]pyridin-2-yl)methyl)-1H-pyrazole-4-carboxamide]: below 1 nM.
For the compound `CCc1c(Cl)ccc2nc(Cn3cc(C(=O)NCc4c(C)cc5c(N)nccc5c4C)cn3)cn12` [Example 141, N-((1-amino-5,7-dimethylisoquinolin-6-yl)methyl)-1-((6-chloro-5-ethylimidazo[1,2-a]pyridin-2-yl)methyl)-1H-pyrazole-4-carboxamide], the EC50 was below 1 nM.
On to `Cc1cc2c(N)nccc2c(C)c1CNC(=O)c1cnn(Cc2cn3c(F)c(C4CC4)ccc3n2)c1` [Example 142, N-((1-amino-5,7-dimethylisoquinolin-6-yl)methyl)-1-((6-cyclopropyl-5-fluoroimidazo[1,2-a]pyridin-2-yl)methyl)-1H-pyrazole-4-carboxamide], for which the EC50 is below 1 nM.
Next, `Cc1cc2c(N)nccc2c(C)c1CNC(=O)c1cnn(Cc2cn3c(C#N)cccc3n2)c1` [Example 143, N-((1-amino-5,7-dimethylisoquinolin-6-yl)methyl)-1-((5-cyanoimidazo[1,2-a]pyridin-2-yl)methyl)-1H-pyrazole-4-carboxamide]: below 1 nM.
Next, `COc1cccc2nc(Cn3cc(C(=O)NCc4c(C)cc5c(N)nccc5c4C)cn3)cn12` [Example 144, N-((1-amino-5,7-dimethylisoquinolin-6-yl)methyl)-1-((5-methoxyimidazo[1,2-a]pyridin-2-yl)methyl)-1H-pyrazole-4-carboxamide]: below 1 nM.
Consider `Cc1cc2c(N)nccc2c(C)c1CNC(=O)c1cnn(Cc2cn3c(C)c(Br)ccc3n2)c1` [Example 145, N-((1-amino-5,7-dimethylisoquinolin-6-yl)methyl)-1-((6-bromo-5-methylimidazo[1,2-a]pyridin-2-yl)methyl)-1H-pyrazole-4-carboxamide], for which the concentration giving a half-maximal response (EC50) was below 1 nM.
In the case of `Cc1cc2nc(Cn3cc(C(=O)NCc4c(C)cc5c(N)nccc5c4C)cn3)cn2cc1C1CC1` [Example 146, N-((1-amino-5,7-dimethylisoquinolin-6-yl)methyl)-1-((6-cyclopropyl-7-methylimidazo[1,2-a]pyridin-2-yl)methyl)-1H-pyrazole-4-carboxamide] it was below 1 nM; in that of `Cc1cc2c(N)nccc2c(C)c1CNC(=O)c1cnn(Cc2cn3cc(C4CC4)c(Cl)cc3n2)c1` [Example 147, N-((1-amino-5,7-dimethylisoquinolin-6-yl)methyl)-1-((7-chloro-6-cyclopropylimidazo[1,2-a]pyridin-2-yl)methyl)-1H-pyrazole-4-carboxamide], below 1 nM.
In the case of `Cc1cc2c(N)nccc2c(C)c1CNC(=O)c1cnn(Cc2cn3c(Cl)c(C4CC4)ccc3n2)c1` [Example 148, N-((1-amino-5,7-dimethylisoquinolin-6-yl)methyl)-1-((5-chloro-6-cyclopropylimidazo[1,2-a]pyridin-2-yl)methyl)-1H-pyrazole-4-carboxamide], the EC50 is below 1 nM.
As to `Cc1cc2c(N)nccc2c(C)c1CNC(=O)c1cnn(Cc2cn3cc(Br)c(Cl)cc3n2)c1` [Example 149, N-((1-amino-5,7-dimethylisoquinolin-6-yl)methyl)-1-((6-bromo-7-chloroimidazo[1,2-a]pyridin-2-yl)methyl)-1H-pyrazole-4-carboxamide], the EC50 was below 1 nM.
As for `Cc1cc2c(N)nccc2c(C)c1CNC(=O)c1cnn(Cc2ccc3ncccc3n2)c1` [Example 150, 1-((1,5-naphthyridin-2-yl)methyl)-N-((1-amino-5,7-dimethylisoquinolin-6-yl)methyl)-1H-pyrazole-4-carboxamide], the EC50 lay in the range of 10 to 100 nM.
`Cc1cc2c(N)nccc2c(C)c1CNC(=O)c1cnn(Cc2ccc(CC(=O)N(C)C)c(Cl)c2)c1` [Example 151, N-((1-amino-5,7-dimethylisoquinolin-6-yl)methyl)-1-(3-chloro-4-(2-(dimethylamino)-2-oxoethyl)benzyl)-1H-pyrazole-4-carboxamide]: the EC50 is below 1 nM.
Turning to `Cc1cc2c(N)nccc2c(C)c1CNC(=O)c1cnn(Cc2ccc(CC(=O)N(C)C)c(C(F)(F)F)c2)c1` [Example 152, N-((1-amino-5,7-dimethylisoquinolin-6-yl)methyl)-1-(4-(2-(dimethylamino)-2-oxoethyl)-3-(trifluoromethyl)benzyl)-1H-pyrazole-4-carboxamide], the 50% effective concentration (EC50) was below 1 nM.
In the case of `Cc1ccc2ccc(Cn3cc(C(=O)NCc4c(C)cc5c(N)nccc5c4C)cn3)cc2c1` [Example 153, N-((1-amino-5,7-dimethylisoquinolin-6-yl)methyl)-1-((7-methylnaphthalen-2-yl)methyl)-1H-pyrazole-4-carboxamide], the EC50 lay within 1 to 10 nM.
For `Cc1cc2c(N)nccc2c(C)c1CNC(=O)c1cnn(CC(=O)Nc2ccccc2)c1` [Example 154, N-((1-amino-5,7-dimethylisoquinolin-6-yl)methyl)-1-(2-oxo-2-(phenylamino)ethyl)-1H-pyrazole-4-carboxamide], the EC50 was in the range of 100 to 1000 nM.
Next, `Cc1cc2c(N)nccc2c(C)c1CNC(=O)c1cnn(Cc2ccc3ccc(Br)cc3n2)c1` [Example 156, N-((1-amino-5,7-dimethylisoquinolin-6-yl)methyl)-1-((7-bromoquinolin-2-yl)methyl)-1H-pyrazole-4-carboxamide]: 1 to 10 nM.
As for `Cc1cc2c(N)nccc2c(C)c1CNC(=O)c1cnn(Cc2ccc3cc(Cl)ccc3n2)c1` [Example 157, N-((1-amino-5,7-dimethylisoquinolin-6-yl)methyl)-1-((6-chloroquinolin-2-yl)methyl)-1H-pyrazole-4-carboxamide], the EC50 lay within 1 to 10 nM.
Turning to `Cc1cc2c(N)nccc2c(C)c1CNC(=O)c1cnn(Cc2ccc3cc(F)ccc3n2)c1` [Example 158, N-((1-amino-5,7-dimethylisoquinolin-6-yl)methyl)-1-((6-fluoroquinolin-2-yl)methyl)-1H-pyrazole-4-carboxamide], the concentration giving a half-maximal response (EC50) is 1 to 10 nM.
As to `Cc1cc2c(N)nccc2c(C)c1CNC(=O)c1cnn(Cc2ccc3cccc(Br)c3n2)c1` [Example 159, N-((1-amino-5,7-dimethylisoquinolin-6-yl)methyl)-1-((8-bromoquinolin-2-yl)methyl)-1H-pyrazole-4-carboxamide], the EC50 lay within 10 to 100 nM.
In the case of `Cc1cc2c(N)nccc2c(C)c1CNC(=O)c1cnn(Cc2ccccc2)c1` [Example 160, N-((1-amino-5,7-dimethylisoquinolin-6-yl)methyl)-1-benzyl-1H-pyrazole-4-carboxamide] it was 100 to 1000 nM; in that of `COCc1c(C(=O)NCc2c(C)cc3c(N)nccc3c2C)cnn1Cc1cnc(N2CCCC2)nc1` [Example 161, N-((1-amino-5,7-dimethylisoquinolin-6-yl)methyl)-5-(methoxymethyl)-1-((2-(pyrrolidin-1-yl)pyrimidin-5-yl)methyl)-1H-pyrazole-4-carboxamide], 10 to 100 nM; in that of `COCc1nn(Cc2cnc(N3CCCC3)nc2)cc1C(=O)NCc1c(C)cc2c(N)nccc2c1C` [Example 162, N-((1-amino-5,7-dimethylisoquinolin-6-yl)methyl)-3-(methoxymethyl)-1-((2-(pyrrolidin-1-y1)pyrimidin-5-yl)methyl)-1H-pyrazole-4-carboxamide], below 1 nM.
Next, `Cc1cc2c(N)nccc2c(C)c1CNC(=O)c1cnn(Cc2ccc3ncc(O)cc3c2)c1` [Example 164, N-((1-amino-5,7-dimethylisoquinolin-6-yl)methyl)-1-((3-hydroxyquinolin-6-yl)methyl)-1H-pyrazole-4-carboxamide]: 1 to 10 nM; `Cc1cc2c(N)nccc2c(C)c1CNC(=O)c1cnn(Cc2ccc(Cc3ccccn3)cc2)c1` [Example 165, N-((1-amino-5,7-dimethylisoquinolin-6-y1)methyl)-1-(4-(pyridin-2-ylmethyl)benzyl)-1H-pyrazole-4-carboxamide]: below 1 nM.
Next, `Cc1cc2c(N)nccc2c(C)c1CNC(=O)c1cnn(Cc2ccc(Cc3nccs3)cc2)c1` [Example 166, N-((1-amino-5,7-dimethylisoquinolin-6-yl)methyl)-1-(4-(thiazol-2-ylmethyl)benzyl)-1H-pyrazole-4-carboxamide]: below 1 nM; `Cc1cc2c(N)nccc2c(C)c1CNC(=O)c1cnn(Cc2ccc(Cc3cccn4ccnc34)cc2)c1` [Example 167, N-((1-amino-5,7-dimethylisoquinolin-6-yl)methyl)-1-(4-(imidazo[1,2-a]pyridin-8-ylmethyl)benzyl)-1H-pyrazole-4-carboxamide]: below 1 nM.
Take `Cc1cc2c(N)nccc2c(C)c1CNC(=O)c1cnn(Cc2ccc(Cc3ncccn3)cc2)c1` [Example 168, N-((1-amino-5,7-dimethylisoquinolin-6-yl)methyl)-1-(4-(pyrimidin-2-ylmethyl)benzyl)-1H-pyrazole-4-carboxamide]: the EC50 lay in the range of 1 to 10 nM.

The values above are taken from patent publication US20260374754A1, “N-((ISOQUINOLIN-6-YL)METHYL)-1H-PYRAZOLE-4-CARBOXAMIDE DERIVATIVES AS PLASMA KALLIKREIN INHIBITORS FOR THE TREATMENT OF HEREDITARY ANGIODEMA” (Takeda Pharmaceutical Company Limited, priority 2022, published 2026).
